Some test systems named below: BT-549 breast; SW-620 colon; LOX IMVI melanoma; HOP-92 NSCLC; OVCAR-8 ovarian; HCC-2998 colon; HCT-116 colon; MCF7 breast; SF-539 CNS; SF-268 CNS.
Common to all, as to test: growth of human tumour cells (NCI), 48 h

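A five-concentration, 48-hour dose response in 96-well plates underlies each endpoint, interpolated linearly between surrounding concentrations. GI50 is the concentration that inhibits growth by half. TGI marks complete inhibition of growth.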 Some results are limits rather than exact numbers.

Take `COC(=O)/C=C/c1cc(OC(C)=O)c2c(c1)[C@@H](C(=O)OC)[C@H](c1ccc(OC(C)=O)c(OC(C)=O)c1)O2`: the GI50 in the test on BT-549 breast was 0.219 µM; in the test with SW-620 colon it was 0.0418 µM; in the test on LOX IMVI melanoma it was 0.0615 µM; with HOP-92 NSCLC, 0.769 µM; in the test on OVCAR-8 ovarian, 0.0795 µM; with HCC-2998 colon it was 0.514 µM. Besides, the GI50 with HCT-116 colon was 0.0485 µM; with MCF7 breast, 0.0339 µM; in the test with SF-539 CNS, 0.0344 µM; with SF-268 CNS it was 0.301 µM. The TGI in the test with BT-549 breast is 32.9 µM; in the test with SW-620 colon it was over 100 µM; with LOX IMVI melanoma, 40.3 µM; with HOP-92 NSCLC it was 22.4 µM; in the test with OVCAR-8 ovarian, over 88.3 µM; with HCC-2998 colon, 22 µM. The TGI with HCT-116 colon was over 59.9 µM; in the test with MCF7 breast it was over 70.7 µM; in the test with SF-539 CNS, 0.305 µM; with SF-268 CNS it was 57.5 µM.

Turning to `COc1cc2c(cc1OC)-c1cc(OC)c(OC)cc1C(CN(C)C)C2` (stereo not given), the GI50 is over 10 µM in the test with BT-549 breast; over 10 µM in the test on SW-620 colon; over 10 µM in the test with LOX IMVI melanoma; 9.97 µM with HOP-92 NSCLC; over 10 µM in the test on OVCAR-8 ovarian; over 10 µM in the test with HCC-2998 colon. Further, the GI50 in the test with HCT-116 colon, with MCF7 breast, in the test with SF-539 CNS and in the test with SF-268 CNS was over 10 µM each time. Also, the TGI in the test with BT-549 breast, with SW-620 colon, with LOX IMVI melanoma, in the test with HOP-92 NSCLC, in the test with OVCAR-8 ovarian and in the test with HCC-2998 colon was over 10 µM in each case. Further, the TGI in the test on HCT-116 colon, in the test on MCF7 breast, in the test on SF-539 CNS and in the test with SF-268 CNS was over 10 µM in each case.

As to `COCCn1cc(-c2nc(-c3cc4cccnc4[nH]3)cs2)c2cc(OC)ccc21`, the GI50 with BT-549 breast was 1.8 µM; with SW-620 colon, 4.04 µM; in the test on LOX IMVI melanoma, 3.35 µM; in the test with HOP-92 NSCLC, 0.387 µM; with OVCAR-8 ovarian, 3.56 µM; with HCC-2998 colon it was 3.68 µM. The GI50 in the test with HCT-116 colon is 3.49 µM; with MCF7 breast, 0.0433 µM; with SF-539 CNS it was 3.39 µM; in the test with SF-268 CNS it was 3.82 µM. Moreover, the TGI in the test with BT-549 breast was 7.66 µM; in the test with SW-620 colon, over 100 µM; with LOX IMVI melanoma, 35.1 µM; with HOP-92 NSCLC, 2.46 µM; with OVCAR-8 ovarian, 45.3 µM; in the test with HCC-2998 colon it was 97.4 µM. Besides, the TGI is 16 µM in the test with HCT-116 colon, 2.67 µM in the test on MCF7 breast, 42 µM in the test on SF-539 CNS and over 100 µM with SF-268 CNS.

Regarding `COc1cc2c(cc1OC)C(Cl)C(c1ccc(F)cc1)=C2Cl` (stereo not given), the TGI in the test with BT-549 breast is 15.6 µM; in the test on SW-620 colon it was 30.4 µM; in the test with LOX IMVI melanoma, 27.7 µM; in the test with HOP-92 NSCLC, 22.6 µM; with OVCAR-8 ovarian it was 36.8 µM; in the test with HCC-2998 colon, 28.5 µM. Besides, the TGI was 25.6 µM with HCT-116 colon, 23.9 µM with MCF7 breast, 30.4 µM in the test with SF-539 CNS and 39.5 µM with SF-268 CNS.

With `Cc1cc(Nc2ccc(C)c(Cl)c2)n2nc(C(F)(F)F)nc2n1`, the GI50 in the test with BT-549 breast is 22.9 µM; in the test on SW-620 colon, 30.2 µM; with LOX IMVI melanoma it was 26.5 µM; with HOP-92 NSCLC, 18 µM; with OVCAR-8 ovarian, 29.3 µM; in the test on HCC-2998 colon it was 40.8 µM. Moreover, the GI50 is 17.2 µM with HCT-116 colon, 22.7 µM in the test on MCF7 breast, 19.1 µM in the test with SF-539 CNS and 28.3 µM in the test with SF-268 CNS. For the same compound, the TGI was 57.4 µM with BT-549 breast; over 100 µM in the test with SW-620 colon; 73.9 µM in the test on LOX IMVI melanoma; 59.4 µM with HOP-92 NSCLC; over 100 µM in the test on OVCAR-8 ovarian; over 100 µM in the test on HCC-2998 colon. Also, the TGI with HCT-116 colon was 46.2 µM; with MCF7 breast, over 100 µM; in the test with SF-539 CNS, 39 µM; in the test with SF-268 CNS, over 100 µM.

Regarding `C/C=C/[C@@H]1O[C@@H]2COC(=O)C2=C[C@@H]1O`, the GI50 in the test with BT-549 breast was 3.59 µM; with SW-620 colon, 2.13 µM; in the test on LOX IMVI melanoma, 17.5 µM; in the test with HOP-92 NSCLC, 0.747 µM; with OVCAR-8 ovarian, 23.3 µM; in the test with HCC-2998 colon, 24.1 µM. The GI50 in the test with HCT-116 colon was 2.06 µM; in the test on MCF7 breast, 33.5 µM; with SF-539 CNS, 2.78 µM; in the test on SF-268 CNS, 24.2 µM. Besides, the TGI was determined as 15.2 µM in the test on BT-549 breast; 5.07 µM in the test with SW-620 colon; 36.1 µM in the test on LOX IMVI melanoma; 9.35 µM in the test with HOP-92 NSCLC; 51.8 µM in the test with OVCAR-8 ovarian; 48.8 µM with HCC-2998 colon. Besides, the TGI in the test on HCT-116 colon was 8.79 µM; in the test with MCF7 breast, over 100 µM; in the test with SF-539 CNS, 8.14 µM; in the test on SF-268 CNS, 63.9 µM.

Regarding `C[C@@H]1CC[C@H]2C(C)(C)[C@H]3C[C@@]12CC[C@@]3(C)O`, the TGI with BT-549 breast, with SW-620 colon, with LOX IMVI melanoma, with HOP-92 NSCLC, with OVCAR-8 ovarian and in the test with HCC-2998 colon was over 100 µM throughout. Further, the TGI in the test on HCT-116 colon, in the test with MCF7 breast, in the test on SF-539 CNS and in the test with SF-268 CNS was over 100 µM throughout.

For `CN1CCN(C(=O)COc2ccc(C34CC5CC(CC(C5)C3)C4)cc2)CC1`, the GI50 with BT-549 breast is 12.2 µM; in the test on SW-620 colon, 12.8 µM; in the test on LOX IMVI melanoma it was 12.3 µM; in the test with HOP-92 NSCLC it was 1.47 µM; with OVCAR-8 ovarian, 18.2 µM; in the test with HCC-2998 colon, 13.8 µM. The GI50 with HCT-116 colon was 13.9 µM; with MCF7 breast, 12.7 µM; in the test on SF-539 CNS, 12.7 µM; with SF-268 CNS, 16.4 µM. The TGI in the test on BT-549 breast stood at 26.5 µM; in the test with SW-620 colon it was 29.6 µM; in the test on LOX IMVI melanoma it was 25 µM; in the test on HOP-92 NSCLC it was 7.23 µM; in the test on OVCAR-8 ovarian it was 54.1 µM; with HCC-2998 colon, 27.4 µM. In addition, the TGI in the test with HCT-116 colon is 26.9 µM; in the test on MCF7 breast it was 29.7 µM; in the test on SF-539 CNS, 25.9 µM; with SF-268 CNS, 39.3 µM.

For the compound `O=C1C(Br)=C(Br)C(=O)c2ccc(=O)ccc21`, the TGI in the test with BT-549 breast was 44.6 µM; in the test on SW-620 colon, 42.7 µM; with LOX IMVI melanoma it was 41.2 µM; in the test with HOP-92 NSCLC, 34.8 µM; in the test with OVCAR-8 ovarian, 50.8 µM; with HCC-2998 colon it was over 100 µM. In addition, the TGI in the test on HCT-116 colon was 39.1 µM; in the test with MCF7 breast it was 37.4 µM; in the test on SF-539 CNS, 45 µM; with SF-268 CNS, over 77 µM.

For the origin of these results see PubChem BioAssay (NCI).
